Laboratory results as given in patent publication US20200022965A1, “PHARMACEUTICAL COMPOSITION FOR CANCER TREATMENT AND USE THEREOF” (priority 2016, published 2020).

What was measured:
[1] = cited from earlier work; for oral absorption: taken orally
[2] = cited from earlier work
[3] = test system: dihydropyrimidine dehydrogenase (DPD); details: cited from earlier work
[4] = test system: colonic cancer cells HCT116; experiment: HCT116 colonic cancer xenograft in nude mice, two weeks of drug delivery (Embodiment 1): cancer volume and weight; type: in vivo; details: HCT116, ig, within 2 weeks, vs solvent group, FIG. 1-3
Description: Nude mice were transplanted with colonic cancer cells HCT116; after the cancer volumes reached 200-300 mm3, the mice were randomly grouped, 8 pieces in each group; the mice were fed with drugs for two weeks. The drug delivery solution can be seen in Table 2 below: […]

Structure (SMILES) | t1/2 ([1]; in vivo) | oral absorption [1] | anti-cancer activities when individually used [2] | other results
O=c1[nH]c(=O)n(C2CCCO2)cc1F (centres unmarked) [Tegafur (FT-207), 1-(etrahydro-2-furyl)-5-fluoro-2,4(1H,3H)-pyrimidinedione] | absorption t1/25 h. | Good oral |  | lipid solubility ([1]; in vivo): tract. It has higher; discharged in the original form along with the urine ([1]; within 24 h after drug delivery): 23% is discharged
O=C(O)c1nc(=O)[nH]c(=O)[nH]1 [Oteracil potassium (OXO), Oteracil potassium] |  |  | no obvious anti-cancer activities | 
Oc1cc(O)c(Cl)cn1 [Gimeracil (CDHP), 2,4-dyhydroxy-5-chloro pyridine] |  |  | no obvious anti-cancer activities | 5-FU degradation inhibition effect relative to uracil [3]: 180 times that of the uracil; DPD inhibiting effect relative to uracil ([3]; reversible inhibitor of the DPD): 180 times that of uracil
O=c1[nH]cc(F)c(=O)[nH]1 [5-Fluorouracil (5-FU), 5-Fluorouracil] | absorption t1/210~20 min, | Incomplete oral |  | 
CCCCCOC(=O)Nc1nc(=O)n([C@@H]2O[C@H](C)[C@@H](O)[C@H]2O)cc1F [Capecitabine, 5′-deoxy-5-fluoro-N[(pentyloxy)carbonyl]cytidine] | orally. t1/2 0.5~1.0 h. | Quickly absorbed by |  | 5-FU concentration in the cancer tissues versus that in the blood ([1]; after the drug is taken orally): is 100 times higher; volume and weight of the cancer [4]: failed to reduce the volume and weight of the cancer
